Laboratory results from patent publication US20240124465A1, “MOLECULES AND METHODS RELATED TO TREATMENT OF DISORDERS ASSOCIATED WITH JAK-2 SIGNALING DYSFUNCTION” (ST. JUDE CHILDREN'S RESEARCH HOSPITAL, priority 2020, published 2024).

Assays:
Assay type in all cases: cell-based
[1] = biological target: T1, JAK1 (Homo sapiens, UniProt P23458); test: Western blot assay, JAK1 protein degradation; conditions: MHH-CALL-4 cells, vehicle control = 100%
T1 construct: endogenous in cells; host or cells: MHH-CALL-4
T1 sequence (P23458 whole entry): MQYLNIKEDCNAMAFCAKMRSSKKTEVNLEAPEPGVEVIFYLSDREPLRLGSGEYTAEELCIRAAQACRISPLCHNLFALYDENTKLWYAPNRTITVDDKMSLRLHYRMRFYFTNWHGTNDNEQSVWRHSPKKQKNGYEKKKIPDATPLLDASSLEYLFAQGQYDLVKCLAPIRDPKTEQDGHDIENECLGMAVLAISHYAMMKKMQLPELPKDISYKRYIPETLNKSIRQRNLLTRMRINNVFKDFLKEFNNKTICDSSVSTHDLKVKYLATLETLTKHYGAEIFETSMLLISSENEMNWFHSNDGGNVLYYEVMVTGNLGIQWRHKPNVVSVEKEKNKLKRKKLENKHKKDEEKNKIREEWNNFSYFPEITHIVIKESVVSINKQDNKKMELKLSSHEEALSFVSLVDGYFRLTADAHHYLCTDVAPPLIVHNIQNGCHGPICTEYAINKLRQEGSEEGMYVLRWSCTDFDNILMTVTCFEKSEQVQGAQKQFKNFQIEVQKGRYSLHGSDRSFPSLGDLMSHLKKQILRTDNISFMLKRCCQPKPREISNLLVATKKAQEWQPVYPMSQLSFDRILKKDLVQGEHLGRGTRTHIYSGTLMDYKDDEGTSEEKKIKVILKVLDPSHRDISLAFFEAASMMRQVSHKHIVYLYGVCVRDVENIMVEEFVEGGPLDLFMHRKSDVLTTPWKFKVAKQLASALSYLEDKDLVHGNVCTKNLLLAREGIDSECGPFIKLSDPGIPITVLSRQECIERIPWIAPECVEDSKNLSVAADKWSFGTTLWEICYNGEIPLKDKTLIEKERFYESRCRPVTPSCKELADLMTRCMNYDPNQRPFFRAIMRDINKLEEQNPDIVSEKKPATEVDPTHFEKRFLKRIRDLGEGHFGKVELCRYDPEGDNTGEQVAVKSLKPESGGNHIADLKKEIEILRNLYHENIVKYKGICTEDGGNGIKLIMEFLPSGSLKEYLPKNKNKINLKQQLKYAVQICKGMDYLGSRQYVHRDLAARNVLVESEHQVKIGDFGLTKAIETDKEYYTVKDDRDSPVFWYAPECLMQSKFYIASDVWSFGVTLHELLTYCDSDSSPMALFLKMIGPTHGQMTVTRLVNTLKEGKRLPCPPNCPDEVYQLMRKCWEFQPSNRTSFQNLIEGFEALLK
Procedure: (§1) Western blot assay: MHH-CALL-4 Cells were washed twice with ice-cold PBS and lysed in RIPA lysis buffer (Sigma) freshly supplemented with Halt™ Protease Inhibitor Cocktail (ThermoFisher) for 15 minutes on ice. The cell pellet was removed by centrifugation at 13,000 g at 4° C. for 15 minutes. Protein concentration was measured by BCA assay (Thermo Fisher Scientific). Proteins were denatured in NuPAGE LDS 4× sample buffer supplemented with reducing agents (Invitrogen). Typically, 10-20 μg of total protein was loaded per lane on a 4%-12% NUPAGE Bis-Tris gradient gel (Invitrogen) and analyzed by standard immunoblotting and imaged using Li—COR Odyssey CLx (LI-COR Biotechnology, Lincoln, NE). To access the protein degradation, the signal of target protein was normalized by the signal of ACBT and the signal of vehicle control was set as 100%. Primary antibodies used were: JAK1 (Cell Signaling #3332S), JAK2 (#3230S), JAK3 (#8827S), TYK2 (#9312S), GSPT1 (#14980S), CRBN (#71810S), IKZF1 (Santa Cruz Biotechnology, SC-398265) and ACBT (Santa Cruz Biotechnology, SC-47778).

[2] = system: MHH-CALL-4 cells; test: Cytotoxicity assay (resazurin, 72 hours); design: AUC: unit not given beside the values; conditions: for EC50: MHHCALL4, resazurin; for AUC: area under the dose-response curve
Method in brief: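 Cells grown in RPMI1640 with 10% FBS, 2×10⁵ per well, were exposed to pin-transferred compounds in triplicate for 72 h at 37 °C, 5% CO2. Viability was read after 4 h resazurin incubation. Dose-response AUC was calculated per compound; selected data were fitted by non-linear regression.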

[3] = biological target: T2, TYK2 (Homo sapiens, UniProt P29597); test: Western blot assay, TYK2 protein degradation; conditions: MHH-CALL-4 cells, vehicle control = 100%
T2 construct: endogenous in cells; host or cells: MHH-CALL-4
T2 sequence (P29597 whole entry): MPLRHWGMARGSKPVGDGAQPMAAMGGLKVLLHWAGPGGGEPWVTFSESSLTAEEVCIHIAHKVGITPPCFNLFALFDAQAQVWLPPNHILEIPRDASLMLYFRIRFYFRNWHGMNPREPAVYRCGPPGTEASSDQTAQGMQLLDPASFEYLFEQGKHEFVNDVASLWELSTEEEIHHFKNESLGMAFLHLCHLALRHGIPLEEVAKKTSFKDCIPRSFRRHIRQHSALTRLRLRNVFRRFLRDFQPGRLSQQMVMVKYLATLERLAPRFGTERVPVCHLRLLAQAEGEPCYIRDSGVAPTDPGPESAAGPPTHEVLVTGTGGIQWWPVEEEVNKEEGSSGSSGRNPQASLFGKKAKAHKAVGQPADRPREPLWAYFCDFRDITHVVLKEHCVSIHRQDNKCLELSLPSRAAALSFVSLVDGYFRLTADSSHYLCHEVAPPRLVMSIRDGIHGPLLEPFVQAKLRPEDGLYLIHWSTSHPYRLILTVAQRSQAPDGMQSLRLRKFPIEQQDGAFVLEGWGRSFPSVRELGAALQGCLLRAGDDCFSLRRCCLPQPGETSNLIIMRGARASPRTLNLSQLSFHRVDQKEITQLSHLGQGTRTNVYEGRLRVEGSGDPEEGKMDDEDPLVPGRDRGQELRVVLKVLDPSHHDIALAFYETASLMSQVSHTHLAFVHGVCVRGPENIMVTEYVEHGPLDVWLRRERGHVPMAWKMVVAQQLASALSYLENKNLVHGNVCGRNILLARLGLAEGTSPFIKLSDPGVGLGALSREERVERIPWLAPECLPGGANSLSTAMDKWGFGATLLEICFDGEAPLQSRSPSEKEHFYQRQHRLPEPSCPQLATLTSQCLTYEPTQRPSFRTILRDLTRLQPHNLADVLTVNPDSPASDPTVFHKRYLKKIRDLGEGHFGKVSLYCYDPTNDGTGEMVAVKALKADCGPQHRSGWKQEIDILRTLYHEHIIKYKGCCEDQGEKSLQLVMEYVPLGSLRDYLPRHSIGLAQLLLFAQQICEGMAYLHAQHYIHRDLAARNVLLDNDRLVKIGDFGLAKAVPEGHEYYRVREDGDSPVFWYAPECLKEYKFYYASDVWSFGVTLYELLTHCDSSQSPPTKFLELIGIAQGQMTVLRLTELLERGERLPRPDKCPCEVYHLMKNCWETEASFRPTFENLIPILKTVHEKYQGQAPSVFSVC
Procedure: as §1

[4] = system: JAK2; test: Western blot assay, JAK2 protein degradation; conditions: MHH-CALL-4 cells, vehicle control = 100%
Method in brief: (§2)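 Immunoblot quantification in MHH-CALL-4 cells. Band intensities were normalized to ACBT and set relative to vehicle control (100%).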

[5] = biological target: T3, JAK3 (Homo sapiens, UniProt P52333); test: Western blot assay, JAK3 protein degradation; conditions: MHHCALL4; 100 nM, 24 h; MHH-CALL-4 cells; vehicle control = 100%; read-out: Target Protein Degradation (% remaining at 100 nM, 24 h) JAK3
T3 construct: endogenous in cells; host or cells: MHH-CALL-4
T3 sequence (P52333 1-1124): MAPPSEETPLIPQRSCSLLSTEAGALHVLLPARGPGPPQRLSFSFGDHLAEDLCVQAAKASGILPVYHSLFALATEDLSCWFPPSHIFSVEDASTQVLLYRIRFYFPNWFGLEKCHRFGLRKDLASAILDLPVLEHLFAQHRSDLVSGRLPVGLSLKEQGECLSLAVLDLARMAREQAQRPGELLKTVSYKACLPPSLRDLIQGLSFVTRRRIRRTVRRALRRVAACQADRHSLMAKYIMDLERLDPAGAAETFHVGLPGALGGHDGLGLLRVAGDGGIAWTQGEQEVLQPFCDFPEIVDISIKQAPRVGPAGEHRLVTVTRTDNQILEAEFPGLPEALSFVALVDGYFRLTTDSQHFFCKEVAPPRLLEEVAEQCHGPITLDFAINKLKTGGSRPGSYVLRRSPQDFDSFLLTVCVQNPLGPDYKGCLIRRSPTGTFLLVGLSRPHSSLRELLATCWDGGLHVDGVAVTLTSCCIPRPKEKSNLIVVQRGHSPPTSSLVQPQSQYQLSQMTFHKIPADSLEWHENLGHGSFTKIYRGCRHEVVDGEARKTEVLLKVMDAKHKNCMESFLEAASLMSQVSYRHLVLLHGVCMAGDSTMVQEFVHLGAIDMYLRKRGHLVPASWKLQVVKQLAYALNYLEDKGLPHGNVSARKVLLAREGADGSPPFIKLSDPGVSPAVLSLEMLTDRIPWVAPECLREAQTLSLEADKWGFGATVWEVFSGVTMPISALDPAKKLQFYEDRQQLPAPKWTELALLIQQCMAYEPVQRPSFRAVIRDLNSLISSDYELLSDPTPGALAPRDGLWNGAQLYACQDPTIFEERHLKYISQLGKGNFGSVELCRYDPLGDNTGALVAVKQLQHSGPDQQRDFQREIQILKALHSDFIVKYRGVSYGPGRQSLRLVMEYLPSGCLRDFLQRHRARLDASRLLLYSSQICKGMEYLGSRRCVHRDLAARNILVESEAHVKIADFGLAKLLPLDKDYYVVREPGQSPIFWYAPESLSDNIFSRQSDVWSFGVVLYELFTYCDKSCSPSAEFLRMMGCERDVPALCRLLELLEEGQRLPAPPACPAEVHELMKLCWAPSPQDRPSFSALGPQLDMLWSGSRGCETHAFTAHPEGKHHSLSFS
Method in brief: as §2

[6] = biological target: T4, GSPT1 (Homo sapiens, UniProt P15170); test: Western blot assay, GSPT1 neosubstrate degradation; conditions: MHHCALL4; 100 nM, 24 h; MHH-CALL-4 cells; vehicle control = 100%
T4 construct: endogenous in cells; host or cells: MHH-CALL-4
T4 sequence (P15170 whole entry): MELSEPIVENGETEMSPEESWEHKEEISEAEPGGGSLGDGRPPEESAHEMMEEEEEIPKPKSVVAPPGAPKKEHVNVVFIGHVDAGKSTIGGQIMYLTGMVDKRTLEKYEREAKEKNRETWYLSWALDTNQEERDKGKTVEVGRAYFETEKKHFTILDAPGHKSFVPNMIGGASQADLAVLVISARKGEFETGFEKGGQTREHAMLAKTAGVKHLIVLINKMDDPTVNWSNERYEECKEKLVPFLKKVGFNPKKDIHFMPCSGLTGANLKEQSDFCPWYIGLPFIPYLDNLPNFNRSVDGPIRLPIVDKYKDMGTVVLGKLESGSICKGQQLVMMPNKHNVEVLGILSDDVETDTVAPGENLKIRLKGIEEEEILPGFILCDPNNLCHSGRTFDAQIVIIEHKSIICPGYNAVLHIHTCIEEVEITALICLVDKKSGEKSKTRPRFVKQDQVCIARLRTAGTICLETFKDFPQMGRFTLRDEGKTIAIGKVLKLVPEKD
Method in brief: as §2

SMILES	Target Protein Degradation (% remaining at 100 nM, 24 h) JAK1 [1]	EC50 [2]	Target Protein Degradation (% remaining at 100 nM, 24 h) TYK2 [3]	Target Protein Degradation (% remaining at 100 nM, 24 h) JAK2 [4]	AUC [2]	remaining activity at 0.1 µM [5]	remaining activity at 0.1 µM [6]
CCS(=O)(=O)N1CC(CC#N)(n2cc(-c3nc(Nc4ccc(C(=O)NC5CCN(c6ccc(C7CCC(=O)NC7=O)cc6)CC5)cc4)nc4[nH]ccc34)cn2)C1 (stereo not drawn) [Compound 46, 4-((4-(1-(3-(cyanomethyl)-1-(ethylsulfonyl)azetidin-3-yl)-1H-pyrazol-4-yl)-7H-pyrrolo[2,3-d]pyrimidin-2-yl)amino)-N-(1-(4-(2,6-dioxopiperidin-3-yl)phenyl)piperidin-4-yl)benzamide]	98 % remaining	9.25 nM	119 % remaining	20 % remaining			
CCS(=O)(=O)N1CC(CC#N)(n2cc(-c3nc(Nc4ccc(C(=O)N5CCC6(CC5)CCN(c5ccc(C7CCC(=O)NC7=O)cc5)CC6)cc4)nc4[nH]ccc34)cn2)C1 (stereo not drawn) [Compound 50, 2-(3-(4-(2-((4-(9-(4-(2,6-dioxopiperidin-3-yl)phenyl)-3,9-diazaspiro[5.5]undecane-3-carbonyl)phenyl)amino)-7H-pyrrolo[2,3-d]pyrimidin-4-yl)-1H-pyrazol-1-yl)-1-(ethylsulfonyl)azetidin-3-yl)acetonitrile]	85 % remaining	9 nM		11 % remaining	202	28%	137%
CCS(=O)(=O)N1CC(CC#N)(n2cc(-c3nc(Nc4ccc(C(=O)NCCN5CCN(c6cccc(C7CCC(=O)NC7=O)c6)CC5)cc4)nc4[nH]ccc34)cn2)C1 (stereo not drawn) [Compound 40, 4-((4-(1-(3-(cyanomethyl)-1-(ethylsulfonyl)azetidin-3-yl)-1H-pyrazol-4-yl)-7H-pyrrolo[2,3-d]pyrimidin-2-yl)amino)-N-(2-(4-(3-(2,6-dioxopiperidin-3-yl)phenyl)piperazin-1-yl)ethyl)benzamide]	114 % remaining	1.9 nM		36 % remaining	139	56%	88%
CCS(=O)(=O)N1CC(CC#N)(n2cc(-c3nc(Nc4ccc(C(=O)NCCOCCOc5ccc(C6CCC(=O)NC6=O)cc5)cc4)nc4[nH]ccc34)cn2)C1 (stereo not drawn) [Compound 11]	110 % remaining	> 10000 nM		90 % remaining		70%	130%
CCS(=O)(=O)N1CC(CC#N)(n2cc(-c3nc(Nc4ccc(C(=O)NCCC5CCN(c6ccc7c(c6)C(=O)N(C6CCC(=O)NC6=O)C7=O)CC5)cc4)nc4[nH]ccc34)cn2)C1 (stereo not drawn) [Compound 32]	69 % remaining	1.3 nM		21 % remaining	251	56%	46%
CCS(=O)(=O)N1CC(CC#N)(n2cc(-c3nc(Nc4ccc(C(=O)NCCCCCNc5ccc(C6CCC(=O)NC6=O)cc5)cc4)nc4[nH]ccc34)cn2)C1 (stereo not drawn) [Compound 7]	78 % remaining	13.9 nM		29 % remaining	248	50%	63%
CCS(=O)(=O)N1CC(CC#N)(n2cc(-c3nc(Nc4ccc(C(=O)NCCCNC(=O)COc5cccc(C6CCC(=O)NC6=O)c5)cc4)nc4[nH]ccc34)cn2)C1 (stereo not drawn) [Compound 33]	83 % remaining	0.7 nM		74 % remaining	185	71%	89%
N#CC[C@H](C1CCCC1)n1cc(-c2nc(Nc3ccc(C(=O)NCCN4CCN(c5ccc6c(c5)C(=O)N(C5CCC(=O)NC5=O)C6=O)CC4)cc3)nc3[nH]ccc23)cn1 (stereo partly drawn) [Compound 22]	72 % remaining	18.1 nM		36 % remaining	141	61%	103%
N#CC[C@@H](C1CCCC1)n1cc(-c2nc(Nc3ccc(C(=O)NCCCN4CCN(c5ccc6c(c5)C(=O)N(C5CCC(=O)NC5=O)C6=O)CC4)cc3)nc3[nH]ccc23)cn1 (stereo partly drawn) [Compound 23]	145 % remaining	30.9 nM		67 % remaining	79	109%	155%
CCS(=O)(=O)N1CC(CC#N)(n2cc(-c3nc(Nc4ccc(C(=O)NCCCN5CCN(c6cccc(C7CCC(=O)NC7=O)c6)CC5)cc4)nc4[nH]ccc34)cn2)C1 (stereo not drawn) [Compound 42, 4-((4-(1-(3-(cyanomethyl)-1-(ethylsulfonyl)azetidin-3-yl)-1H-pyrazol-4-yl)-7H-pyrrolo[2,3-d]pyrimidin-2-yl)amino)-N-(3-(4-(3-(2,6-dioxopiperidin-3-yl)phenyl)piperazin-1-yl)propyl)benzamide]	128 % remaining	836 nM		48 % remaining	139	71%	76%
CCS(=O)(=O)C1CC(CC#N)(n2cc(-c3nc(Nc4ccc(C(=O)NC5CCN(c6cccc7c6C(=O)N(C6CCC(=O)NC6=O)C7=O)CC5)cc4)nc4[nH]ccc34)cn2)C1 (stereo not drawn) [Compound 30]	105 % remaining	0.3 nM		88 % remaining	215.00	77%	140%
CCS(=O)(=O)N1CC(CC#N)(n2cc(-c3nc(Nc4ccc(C(=O)N5CCC6(CCN(c7ccc(C8CCC(=O)NC8=O)cc7)CC6)C5)cc4)nc4[nH]ccc34)cn2)C1 (stereo not drawn) [Compound 52, 2-(3-(4-(2-((4-(8-(4-(2,6-dioxopiperidin-3-yl)phenyl)-2,8-diazaspiro[4.5]decane-2-carbonyl)phenyl)amino)-7H-pyrrolo[2,3-d]pyrimidin-4-yl)-1H-pyrazol-1-yl)-1-(ethylsulfonyl)azetidin-3-yl)acetonitrile]	126 % remaining	9 nM		16 % remaining	180	27%	72%
